SMILES strings stand for the structures.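 Exposure lasted 48 hours, with cells grown in 96-well plates and compounds tested at five concentrations. Abbreviation: GI50, concentration required for 50% inhibition of growth. The concentration for full growth arrest is given as TGI.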

Experimental findings from PubChem BioAssay (NCI) are described below.

Some test systems named below: NCI-H226 lung; 786-0 renal; RXF 393 renal; UACC-257 melanoma; NCI-H23 lung; CCRF-CEM leukemia; NCI/ADR-RES ovarian; T-47D breast; PC-3 prostate; SK-MEL-5 melanoma.
Common to all, as to test: NCI anticancer screen, dose series, 48 h

`COc1ccc(S(=O)(=O)n2c3ccccc3n3ncc(-c4nnc(C)o4)c23)cc1`: the GI50 with NCI-H226 lung was 10.8 µM; in the assay with 786-0 renal, 0.688 µM; with RXF 393 renal, 0.319 µM; in the assay on UACC-257 melanoma, 22.4 µM; in the assay on NCI-H23 lung, 0.786 µM; in the assay on CCRF-CEM leukemia, 0.431 µM. The GI50 in the assay on NCI/ADR-RES ovarian is 0.391 µM; in the assay with T-47D breast, 0.584 µM; with PC-3 prostate, 0.478 µM; in the assay with SK-MEL-5 melanoma it was 0.401 µM. Further, the TGI was over 69.2 µM in the assay on NCI-H226 lung; over 71.3 µM with 786-0 renal; 3.97 µM in the assay on RXF 393 renal; over 87 µM with UACC-257 melanoma; 75.8 µM with NCI-H23 lung; over 100 µM in the assay on CCRF-CEM leukemia. The TGI with NCI/ADR-RES ovarian was over 48.1 µM; in the assay on T-47D breast it was 62.4 µM; in the assay with PC-3 prostate, over 100 µM; in the assay with SK-MEL-5 melanoma it was 15 µM.
`C=C(C)[C@@H]1CC[C@]2(C)[C@H](CC=C3[C@@H]4[C@H](C)[C@@H](C)CC[C@]4(CO)CC[C@]32C)[C@@]1(C)CCCN`: the GI50 is 6.72 µM in the assay with NCI-H226 lung; 0.841 µM with 786-0 renal; 0.826 µM with RXF 393 renal; 1.04 µM in the assay with UACC-257 melanoma; 1.34 µM in the assay with NCI-H23 lung; 1.31 µM in the assay on CCRF-CEM leukemia. In addition, the GI50 with NCI/ADR-RES ovarian was 0.986 µM; in the assay with T-47D breast, 1.51 µM; in the assay on PC-3 prostate, 1.65 µM; in the assay on SK-MEL-5 melanoma, 0.91 µM. For the same compound, the TGI in the assay with NCI-H226 lung came to 18.3 µM; in the assay on 786-0 renal it was 1.58 µM; with RXF 393 renal, 1.59 µM; with UACC-257 melanoma, 2.21 µM; in the assay with NCI-H23 lung it was 4 µM; with CCRF-CEM leukemia it was 5.26 µM. Besides, the TGI in the assay with NCI/ADR-RES ovarian stood at 2.17 µM; with T-47D breast, 5.15 µM; with PC-3 prostate, 7.48 µM; in the assay on SK-MEL-5 melanoma, 1.65 µM.
For the compound `O[C@H](CN1CC1)[C@@H](O)CN1CC1`, the GI50 is 3.17 µM with NCI-H226 lung; 3.42 µM with 786-0 renal; 7.35 µM in the assay with RXF 393 renal; 11.6 µM in the assay with UACC-257 melanoma; 3.24 µM with NCI-H23 lung; 0.604 µM with CCRF-CEM leukemia. Also, the GI50 in the assay with NCI/ADR-RES ovarian is 2.8 µM; in the assay with T-47D breast, 7.13 µM; in the assay on PC-3 prostate it was 15.1 µM; with SK-MEL-5 melanoma, 13.1 µM. The TGI in the assay on NCI-H226 lung was 26 µM; with 786-0 renal, 13.5 µM; in the assay on RXF 393 renal, 26.1 µM; in the assay with UACC-257 melanoma it was 89.9 µM; with NCI-H23 lung, over 100 µM; in the assay on CCRF-CEM leukemia, over 100 µM. Further, the TGI was 53.1 µM in the assay on NCI/ADR-RES ovarian, 66.6 µM in the assay on T-47D breast, over 100 µM in the assay with PC-3 prostate and 29.2 µM in the assay with SK-MEL-5 melanoma.
As to `O=C(c1ccccc1)c1ccccc1C(=O)c1ccccc1`, the GI50 with NCI-H226 lung is 52.3 µM; with 786-0 renal, 50.6 µM; in the assay on RXF 393 renal, 47.8 µM; in the assay on UACC-257 melanoma, 40.5 µM; with NCI-H23 lung, 34 µM; with CCRF-CEM leukemia it was 42.9 µM. Besides, the GI50 with NCI/ADR-RES ovarian was 27.4 µM; in the assay on T-47D breast it was 47.2 µM; in the assay with PC-3 prostate it was 37.7 µM; with SK-MEL-5 melanoma, 22.5 µM. For the same compound, the TGI in the assay on NCI-H226 lung, in the assay with 786-0 renal, with RXF 393 renal, with UACC-257 melanoma, in the assay on NCI-H23 lung and in the assay on CCRF-CEM leukemia was over 100 µM throughout. The TGI is over 100 µM in the assay with NCI/ADR-RES ovarian, over 100 µM with T-47D breast, over 100 µM in the assay on PC-3 prostate and 67.1 µM in the assay on SK-MEL-5 melanoma.
Consider `COc1cccc2ccc3c(c12)C(=O)OC31CCc2c(C)cccc21` (stereo not given), for which the TGI is over 31.6 µM with NCI-H226 lung; over 46.4 µM in the assay on 786-0 renal; 44.6 µM with RXF 393 renal; over 100 µM in the assay on UACC-257 melanoma; over 46.4 µM in the assay on NCI-H23 lung; over 100 µM in the assay with CCRF-CEM leukemia. For the same compound, the TGI is over 100 µM with NCI/ADR-RES ovarian, over 100 µM in the assay with T-47D breast, over 100 µM with PC-3 prostate and 19.5 µM with SK-MEL-5 melanoma.
Regarding `CCC(=O)OC1=CN2C(=NC(c3ccc(N)cc3)=CC2c2cc(OC)c(OC)c(OC)c2)S1` (stereo not given), the GI50 was 7.47 µM in the assay with NCI-H226 lung; 4.57 µM in the assay on 786-0 renal; 2.3 µM in the assay with RXF 393 renal; 5.96 µM with UACC-257 melanoma; 5.82 µM with NCI-H23 lung; 2.41 µM with CCRF-CEM leukemia. Also, the GI50 in the assay with NCI/ADR-RES ovarian was 3.73 µM; in the assay with T-47D breast, 4.01 µM; in the assay with PC-3 prostate, 6.04 µM; in the assay on SK-MEL-5 melanoma, 2.89 µM. Also, the TGI in the assay on NCI-H226 lung is over 100 µM; in the assay with 786-0 renal, 23.4 µM; in the assay with RXF 393 renal, 7.98 µM; in the assay with UACC-257 melanoma, 19.9 µM; in the assay on NCI-H23 lung, 35.6 µM; with CCRF-CEM leukemia, 9.13 µM. For the same compound, the TGI in the assay with NCI/ADR-RES ovarian was over 100 µM; in the assay on T-47D breast it was 30.8 µM; with PC-3 prostate it was 42.9 µM; in the assay with SK-MEL-5 melanoma it was 12 µM.
Turning to `Cc1nc2sc(C(=O)Nc3cccc(Cl)c3C)c(N)c2cc1C(C)O` (stereo not given), the GI50 is 2.21 µM in the assay on NCI-H226 lung; 0.449 µM in the assay on 786-0 renal; 0.189 µM in the assay with RXF 393 renal; 20.2 µM in the assay with UACC-257 melanoma; 0.567 µM with NCI-H23 lung; 0.115 µM in the assay with CCRF-CEM leukemia. For the same compound, the GI50 in the assay with NCI/ADR-RES ovarian is 0.119 µM; with T-47D breast, 0.443 µM; with PC-3 prostate, 0.286 µM; in the assay on SK-MEL-5 melanoma, 0.26 µM. Also, the TGI was over 80.8 µM in the assay with NCI-H226 lung; over 49.2 µM in the assay on 786-0 renal; 18.1 µM in the assay on RXF 393 renal; over 51.6 µM in the assay with UACC-257 melanoma; over 56.6 µM with NCI-H23 lung; over 54.7 µM with CCRF-CEM leukemia. For the same compound, the TGI in the assay on NCI/ADR-RES ovarian is over 61.3 µM; with T-47D breast it was over 100 µM; in the assay with PC-3 prostate it was over 100 µM; in the assay with SK-MEL-5 melanoma it was 15.6 µM.
For `Cc1[nH]n(-c2ccccc2)c(=O)c1C(=O)c1ccccc1`, the GI50 in the assay with NCI-H226 lung, in the assay with 786-0 renal, in the assay on RXF 393 renal, in the assay on UACC-257 melanoma, with NCI-H23 lung and with CCRF-CEM leukemia was over 25 µM throughout. Also, the GI50 in the assay on NCI/ADR-RES ovarian is over 23.8 µM; with T-47D breast, over 25 µM; in the assay on PC-3 prostate, 19.7 µM; in the assay on SK-MEL-5 melanoma, over 25 µM. The TGI in the assay with NCI-H226 lung, in the assay on 786-0 renal, with RXF 393 renal, in the assay with UACC-257 melanoma, in the assay with NCI-H23 lung and with CCRF-CEM leukemia was over 25 µM in each case. In addition, the TGI in the assay on NCI/ADR-RES ovarian, with T-47D breast, in the assay with PC-3 prostate and in the assay with SK-MEL-5 melanoma was over 25 µM throughout.
